# Data published in patent publication US20040028744A1, “Mucoadhesive composition” (priority 2002, published 2004).
# Test: Solubility of benzocaine in ethyl alcohol with and without menthol
# Assay type: physicochemical
# Description: While not wishing to be bound to any theory, it appears that, in embodiments containing the medicament, for example benzocaine, menthol improves the clarity of the composition by increasing the solubility of medicament in the gel composition. This belief is based on the observation that the solubility of benzocaine in ethyl alcohol containing menthol is higher than the solubility of benzocaine in ethyl alcohol without menthol. It is believed that menthol can enhance the interaction between polymethacrylate, such as Eudragit™ RS, and a medicament, such as benzocaine. This belief is based on an interaction study conducted with a Differential Scanning Calorimeter (DSC). Further, while not wishing to be bound to any theory, it appears that one or both of the polymers may be forming a complex with the medicament drug in the presence of menthol and enhancing the clarity of the composition.
smiles,measurement,value
CCOC(=O)c1ccc(N)cc1 [benzocaine],solubility of benzocaine in ethyl alcohol containing menthol versus without menthol,higher
